# From US20260262643A1, “HERBICIDAL BENZOXAZINES” (FMC CORPORATION, priority 2022, published 2026)
# How the values were obtained:
# soybean [1] = experiment: Test C postemergence; format: in vivo, Glycine max; conditions: 10 days, 0 to 100 scale (0 no effect, 100 complete control)
# Procedure, shortened: (§1)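 Soil-applied (pre) and foliar (post, 1–2 leaf, 2–10 cm) sprays; surfactant-containing non-phytotoxic solvent vehicle; loam/sand substrate. Readout: visual % control at 10 d, greenhouse, versus untreated.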
# kochia [2] = experiment: Test C postemergence; format: in vivo, Bassia scoparia; conditions: 10 days, 0 to 100 scale (0 no effect, 100 complete control)
# Procedure, shortened: as §1
# foxtail, giant [3] = experiment: Test C preemergence; format: in vivo, Setaria faberi
# Text: (§2) Seeds of plant species selected from barnyardgrass (Echinochloa crusgalli), blackgrass (Alopecurus myosuroides), corn (Zea mays), foxtail, giant (giant foxtail, Setaria faberi), green foxtail (Setaria viridis), goosegrass (Eleusine indica), kochia (Bassia scoparia), oat, wild (wild oat, Avena fatua), pigweed, palmer (palmer amaranth, palmer pigweed, Amaranthus palmeri), Pigweed, Redroot (redroot pigweed, Amaranthus retroflexus), ragweed (common ragweed, Ambrosia artemisiifolia), ryegrass, Italian ([…] ryegrass, Lolium multiflorum), soybean (Glycine max), and wheat (Triticum aestivum) were planted into a blend of loam soil and sand and treated preemergence with a directed soil spray using test chemicals formulated in a non-phytotoxic solvent mixture which included a surfactant. At the same time, plants selected from these crops and weed species and also galium (catchweed bedstraw, Galium aparine) and horseweed (Erigeron canadensis) were planted in pots containing the same blend of loam soil and sand and treated with postemergence applications of test chemicals formulated in the same manner. Plants ranged in height from 2 to 10 cm and were in the one- to two-leaf stage for the postemergence treatment. Treated plants and untreated controls were maintained in a greenhouse for 10 days, after which time all treated plants were compared to untreated controls and visually evaluated for injury. Plant response ratings, summarized in Table C, are based on a 0 to 100 scale where 0 is no effect and 100 is complete control. A dash (-) response means no test result.
# rice = experiment: Test D flooded paddy test; format: in vivo, Oryza sativa; conditions: 250 g ai/ha, applied to paddy water, visual rating after 13 to 14 days, scale 0 to 100 (0 no effect, 100 complete control)
# Procedure, shortened: (§3)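 2-leaf plants; flood 3 cm above soil; compound dosed into paddy water; greenhouse 13–14 d; visual rating vs controls, 0–100 (100 = complete control); dash = not tested.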
# ryegrass, Italian [4] = experiment: Test C preemergence; format: in vivo, Lolium multiflorum
# Procedure, shortened: as §1
# blackgrass [5] = experiment: Test C preemergence; format: in vivo, Alopecurus myosuroides
# Procedure, shortened: as §1
# sedge, umbrella = experiment: Test D flooded paddy test; format: in vivo, Cyperus difformis; conditions: 250 g ai/ha, applied to paddy water, visual rating after 13 to 14 days, scale 0 to 100 (0 no effect, 100 complete control)
# Procedure, shortened: as §3
# barnyardgrass [6] = experiment: Test C preemergence; format: in vivo, Echinochloa crusgalli
# Procedure, shortened: as §1
# wheat [7] = experiment: Test C preemergence; format: in vivo, Triticum aestivum
# Procedure, shortened: as §1
# ryegrass, Italian [8] = experiment: Test C postemergence; format: in vivo, Lolium multiflorum; conditions: 10 days, 0 to 100 scale (0 no effect, 100 complete control)
# Procedure, shortened: as §1
# ragweed [9] = experiment: Test C postemergence; format: in vivo, Ambrosia artemisiifolia; conditions: 10 days, 0 to 100 scale (0 no effect, 100 complete control)
# Procedure, shortened: as §1
# oat, wild [10] = experiment: Test C preemergence; format: in vivo, Avena fatua
# Procedure, shortened: as §1
# barnyardgrass [11] = experiment: Test C postemergence; format: in vivo, Echinochloa crusgalli; conditions: 10 days, 0 to 100 scale (0 no effect, 100 complete control)
# Procedure, shortened: as §1
# pigweed, palmer [12] = experiment: Test C postemergence; format: in vivo, Amaranthus palmeri; conditions: 10 days, 0 to 100 scale (0 no effect, 100 complete control)
# Procedure, shortened: as §1
# galium = experiment: Test C postemergence; format: in vivo, Galium aparine; conditions: 10 days, 0 to 100 scale (0 no effect, 100 complete control)
# Procedure, shortened: as §1
# corn = experiment: Test C postemergence; format: in vivo, Zea mays; conditions: 10 days, 0 to 100 scale (0 no effect, 100 complete control)
# Procedure, shortened: as §1
# soybean [13] = experiment: Test C preemergence; format: in vivo, Glycine max
# Procedure, shortened: as §1
# ragweed [14] = experiment: Test C preemergence; format: in vivo, Ambrosia artemisiifolia
# Procedure, shortened: as §1
# pigweed, palmer [15] = experiment: Test C preemergence; format: in vivo, Amaranthus palmeri
# Procedure, shortened: as §1
# horseweed = experiment: Test C postemergence; format: in vivo, Erigeron canadensis; conditions: 10 days, 0 to 100 scale (0 no effect, 100 complete control)
# Procedure, shortened: as §1
# blackgrass [16] = experiment: Test C postemergence; format: in vivo, Alopecurus myosuroides; conditions: 10 days, 0 to 100 scale (0 no effect, 100 complete control)
# Procedure, shortened: as §1
# wheat [17] = experiment: Test C postemergence; format: in vivo, Triticum aestivum; conditions: 10 days, 0 to 100 scale (0 no effect, 100 complete control)
# Procedure, shortened: as §1
# kochia [18] = experiment: Test C preemergence; format: in vivo, Bassia scoparia
# Procedure, shortened: as §1
# barnyardgrass [19] = experiment: Test D flooded paddy test; format: in vivo, Echinochloa crus-galli; conditions: 250 g ai/ha, applied to paddy water, visual rating after 13 to 14 days, scale 0 to 100 (0 no effect, 100 complete control)
# Procedure, shortened: as §3
# oat, wild [20] = experiment: Test C postemergence; format: in vivo, Avena fatua; conditions: 10 days, 0 to 100 scale (0 no effect, 100 complete control)
# Procedure, shortened: as §1
# foxtail, giant [21] = experiment: Test C postemergence; format: in vivo, Setaria faberi; conditions: 10 days, 0 to 100 scale (0 no effect, 100 complete control)
# Text: as §2
# ducksalad = experiment: Test D flooded paddy test; format: in vivo, Heteranthera limosa; conditions: 250 g ai/ha, applied to paddy water, visual rating after 13 to 14 days, scale 0 to 100 (0 no effect, 100 complete control)
# Procedure, shortened: as §3
# [22] = 500 g ai/ha, preemergence, 0 to 100 scale (0 no effect, 100 complete control)
# [23] = Preemergence, 125 g ai/ha, 0 to 100 scale, 0 no effect, 100 complete control
compound,measurement,setting,value
COc1ccc(-n2cnc(C3CCC3)n2)cc1C(=O)N1C[C@H](C)Oc2c(Cl)cccc21 [Compound 323],"Plant response rating, Soybean","soybean [1]; 500 g ai/ha, postemergence",100
same,"Plant response rating, Soybean","soybean [1]; Postemergence, 125 g ai/ha",100
same,"Plant response rating, Kochia","kochia [2]; 500 g ai/ha, postemergence",90
same,"Plant response rating, Kochia","kochia [2]; Postemergence, 125 g ai/ha",90
same,"Foxtail, Giant plant response rating","foxtail, giant [3]; [22]",100
same,"Plant response rating, Foxtail, Giant","foxtail, giant [3]; [23]",90
same,"Plant response rating, Rice (Flood)",rice,0
same,"Ryegrass, Italian plant response rating","ryegrass, Italian [4]; [22]",80
same,"Plant response rating, Ryegrass, Italian","ryegrass, Italian [4]; [23]",70
same,Blackgrass plant response rating,blackgrass [5]; [22],80
same,"Plant response rating, Blackgrass",blackgrass [5]; [23],70
same,"Plant response rating, Sedge, Umbrella (Flood)","sedge, umbrella",70
same,Barnyardgrass plant response rating,barnyardgrass [6]; [22],100
same,"Plant response rating, Barnyardgrass",barnyardgrass [6]; [23],70
same,Wheat plant response rating,wheat [7]; [22],80
same,"Plant response rating, Wheat",wheat [7]; [23],60
same,"Plant response rating, Ryegrass, Italian","ryegrass, Italian [8]; 500 g ai/ha, postemergence",60
same,"Plant response rating, Ryegrass, Italian","ryegrass, Italian [8]; Postemergence, 125 g ai/ha",10
same,"Plant response rating, Ragweed","ragweed [9]; 500 g ai/ha, postemergence",70
same,"Plant response rating, Ragweed","ragweed [9]; Postemergence, 125 g ai/ha",60
same,"Oat, Wild plant response rating","oat, wild [10]; [22]",70
same,"Plant response rating, Oat, Wild","oat, wild [10]; [23]",20
same,"Plant response rating, Barnyardgrass","barnyardgrass [11]; 500 g ai/ha, postemergence",60
same,"Plant response rating, Barnyardgrass","barnyardgrass [11]; Postemergence, 125 g ai/ha",30
same,"Plant response rating, Pigweed, Palmer","pigweed, palmer [12]; 500 g ai/ha, postemergence",100
same,"Plant response rating, Pigweed, Palmer","pigweed, palmer [12]; Postemergence, 125 g ai/ha",80
same,"Plant response rating, Galium","galium; 500 g ai/ha, postemergence",100
same,"Plant response rating, Galium","galium; Postemergence, 125 g ai/ha",100
same,"Plant response rating, Corn","corn; 500 g ai/ha, postemergence",50
same,"Plant response rating, Corn","corn; Postemergence, 125 g ai/ha",10
same,Soybean plant response rating,soybean [13]; [22],80
same,"Plant response rating, Soybean",soybean [13]; [23],50
same,Ragweed plant response rating,ragweed [14]; [22],100
same,"Plant response rating, Ragweed",ragweed [14]; [23],30
same,"Pigweed, Palmer plant response rating","pigweed, palmer [15]; [22]",100
same,"Plant response rating, Pigweed, Palmer","pigweed, palmer [15]; [23]",100
same,"Plant response rating, Horseweed","horseweed; 500 g ai/ha, postemergence",40
same,"Plant response rating, Horseweed","horseweed; Postemergence, 125 g ai/ha",30
same,"Plant response rating, Blackgrass","blackgrass [16]; 500 g ai/ha, postemergence",90
same,"Plant response rating, Blackgrass","blackgrass [16]; Postemergence, 125 g ai/ha",50
same,"Plant response rating, Wheat","wheat [17]; 500 g ai/ha, postemergence",20
same,"Plant response rating, Wheat","wheat [17]; Postemergence, 125 g ai/ha",20
same,Kochia plant response rating,kochia [18]; [22],100
same,"Plant response rating, Kochia",kochia [18]; [23],90
same,"Plant response rating, Barnyardgrass (Flood)",barnyardgrass [19],30
same,"Plant response rating, Oat, Wild","oat, wild [20]; 500 g ai/ha, postemergence",20
same,"Plant response rating, Oat, Wild","oat, wild [20]; Postemergence, 125 g ai/ha",20
same,"Plant response rating, Foxtail, Giant","foxtail, giant [21]; 500 g ai/ha, postemergence",90
same,"Plant response rating, Foxtail, Giant","foxtail, giant [21]; Postemergence, 125 g ai/ha",20
same,"Plant response rating, Ducksalad (Flood)",ducksalad,30
